Here are results for 1 molecule from patent US20030186954A1, “Estriol to treat and prevent cardiovascular disease” (priority 2002, published 2003).

Read-outs that look alike come from different tables or passages of the source.

Data set [1] relates to coronary arteries of ovariectomized female rhesus monkeys (serotonin + U46619 induced vasospasm). The data set can be described thus: Drug-induced (serotonin + U46619) coronary vasospasm in ovariectomized rhesus monkeys, angiography. The format is in vivo, rhesus monkeys (Macaca mulatta). Conditions: for Monkeys suffering a vasospasm during the study: estriol cream treated ovariectomized monkeys, 12 step intracoronary serotonin+U46619 injection protocol. Here is the method:
The monkeys were entered into the study no less than 3 months after ovariectomy.
Angiography at the Dotter Institute, after overnight fasting, began with preanesthesia with ketamine (10 mg/kg body weight intramuscular), intubation with an endotracheal tube and a light surgical plane of anesthesia with isoflurane (induced at 1.5% to 3% maintained at 0.75% to 1.25%), vaporized with 33% nitrous oxide and 67% oxygen, or with 100% oxygen. Bilateral femoral intraarterial 3F catheters allowed for coronary catheterization and continuous recording of systemic arterial blood pressure and heart rate, which were maintained close to the initial anesthetic value for each monkey. Intravenous heparin (1,000 U) was injected, and up to 120 ml of pyruvated Ringer's solution and 0 to 50 ml of dextran solution were used (as needed) to maintain diastolic blood pressure ≧60 mm Hg. A heating pad assisted in maintenance of a body temperature decrease ≦2° C. of preanesthesia body temperature (monitored by rectal thermometer). An electrocardiogram (ECG) recorded on a Gould eight-channel recorder, cutaneous arterial oxygen saturation, respiratory rate and end-tidal CO2 were also monitored.
Entire experiments were recorded on videotape (with episodic fluoroscopic imaging and continuous voice annotation) to permit computerized quantitative coronary angiography. […]
Placement of the 3F catheter (except as noted later) was adjusted to provide sufficient filling with radio-opaque contrast medium, limited reflux and isolation of a branch of the coronary arterial tree. […] Fluoroscopic images were recorded on film using an OEC model 9800 digital x-ray system with fluoroscopic C-arm, digitally recorded, and evaluated in subsequent analysis. All procedures including a brief 0.2 ml injection of Hexabrix for optimal quantitative angiography were recorded on videotape for subsequent computer analysis. […]
After 4 weeks of daily treatment with 0.2 mg/kg of the estriol topical cream, the monkeys were studied by coronary catheterization, and reactivity was assessed by injection of serotonin (100 μM) and U46619 (1 μM).

A short description of data set [2]: Levels of estriol in saliva of human volunteers treated with skin cream. The class given is in vivo. Conditions: topical; for concentration at 24 h: human volunteers, 24 hours after second application, read-out: Salivary concentration of estriol (group average). Here is the method:
Four human volunteers applied one of three estriol skin cream formulations in a base of polyethylene glycol, sorbitol, and water. The formulations were as described above in Example 3, except that one formulation contained 0.1% estriol, a second formulation contained 0.5% estriol, and a third contained 1% estriol. Each volunteer applied […] of one of the formulations daily for 2 days for a total applied dosage of 4 mg, 20 mg, and 40 mg of estriol, respectively.
Concentrations of estriol in saliva was measured 24 hours after the second application of the estriol cream formulations. The group that applied the 0.1% estriol averaged a salivary concentration of about 300 pg/ml. The 0.5% group averaged about 1500 pg/ml. The 1%group averaged about 4000 pg/ml.
In addition, salivary concentration of estriol was measured ten minutes following the application of 20 mg of estriol in skin cream. A concentration of 10 ng/ml was found, indicating rapid absorption.

Data set [3] can be described thus: Steroid levels in plasma and urine of estriol cream treated monkeys. The conditions noted are these: urine collected just prior to cardiac catheterization after 4 weeks daily 0.3% estriol topical cream; n = 5.

Consider `C[C@]12CC[C@@H]3c4ccc(O)cc4CC[C@H]3[C@@H]1C[C@@H](O)[C@@H]2O` [Estriol], for which the entries for the “Monkeys suffering a vasospasm during the study” value in data set [1] and in data set [1] (listed as E3) were “None of the monkeys” and “none of the E3 treated monkeys showed a vasospasm”, respectively. Further, the “Vasospasm criteria met (incidence)” value in data set [1] (ovariectomized monkeys, 4 weeks daily 0.3% estriol topical cream (0.2 mg/kg), intracoronary serotonin 100 μM + U46619 1 μM, criteria <33% of control diameter for >5 minutes) is 0/6. Further, the concentration at 24 h in data set [2] (0.1% estriol skin cream, 4 ml daily for 2 days (4 mg)) is approximately 0.3 ng/mL; in data set [2] (0.5% estriol skin cream, 4 ml daily for 2 days (20 mg)) it was approximately 1.5 ng/mL; in data set [2] (1% estriol skin cream, 4 ml daily for 2 days (40 mg)), approximately 4 ng/mL. For the same molecule, the concentration at 10 min in data set [2] (human, ten minutes following application of 20 mg of estriol in skin cream, read-out: Salivary concentration of estriol) stood at 10 ng/mL. The “E3 absorbed, urine (total)” value in data set [3] is on record as “***2412 +/− 316 (n = 5) ng/ml”.
